From BindingDB's records for doi:10.1021/jm960495w (Hokkaido University, 1997) come the findings set out here.

The experiment is described as follows: Percentage inhibition of N-methyl-D-aspartic acid (NMDA) receptor produced by oocytes.

A word on the IC50: it is the concentration that inhibits the measured activity by half. Low readings indicate greater potency in that assay, high ones weaker potency in that assay. On to `CCC(N)[C@@H]1C[C@@]1(C(=O)N(CC)CC)c1ccccc1` (stereo partly drawn) [(1S,2R)-2-(1-Amino-propyl)-1-phenyl-cyclopropanecarboxylic acid diethylamide], for which the IC50 stood at 51 µM.
